According to US6683096B2, “Indolylpiperidine derivatives as antihistaminic and antiallergic agents” (Almirall Prodesfarma, S.A., priority 1999, dated 2004):
Like-named read-outs stand apart in the source and are kept apart here.

Key:
[1] = molecular target: T1, histamine-H1 receptors (Cavia porcellus, UniProt P31389); experiment: Histamine-H1 receptor binding assay ([3H]-mepyramine, guinea pig cerebellum membranes)
T1 construct: performed in guinea pig cerebellum membranes; from tissue; host or cells: guinea pig cerebellum membranes
Method: (1) Histamine-H1 receptor binding assay
Briefly, the membrane suspensions (160 μg/ml) were incubated at 30° C. with 0.7 nM [^3H]- mepyramine and different concentrations of the test compounds in a final volume of 250 μl. Binding reactions were terminated by filtration after 30 min of incubation and the bound radioactivity was determined. The specific binding was measured in the presence of 10 μM of promethazine. The affinity of each test compound to the receptor was determined by using at least six different concentrations run in duplicate. IC50 values were obtained by non-linear regression by use of SAS on a DEC AXP computer.

[2] = test system: histamine-induced skin vascular permeability in rats; experiment: Histamine-induced skin vascular permeability in rats; format: in vivo; conditions: Rattus norvegicus, po; 3 mg/Kg orally, 4 hours after administration, male Wistar rats; read-out: inhibition of the histamine-induced wheal
Method: (2) Histamine-induced skin vascular permeability in rats
Male Wistar rats (180-210 g) were treated orally with the test compound or vehicle. One, 4, 8 and 24 hours later, the rats were lightly anaesthetized with ether. The cutaneous reaction was induced by two intradermal injections of 50 μl of histamine (100 μg/ml) onto the back, followed by a intravenous injection of 3 ml/kg of Evan's Blue (5 mg/ml), both dissolved in saline. Sixty min later, the rats were killed by cervical dislocation and the back skin dissected free. The diameter (in millimeters) of the wheal was measured in two directions and the area was calculated.

[3] = guinea pig cerebellum membranes, 0.7 nM [3H]-mepyramine, read-out: BINDING TO RECEPTOR H1 ( IC50 nM )

T1 sequence (P31389 whole entry): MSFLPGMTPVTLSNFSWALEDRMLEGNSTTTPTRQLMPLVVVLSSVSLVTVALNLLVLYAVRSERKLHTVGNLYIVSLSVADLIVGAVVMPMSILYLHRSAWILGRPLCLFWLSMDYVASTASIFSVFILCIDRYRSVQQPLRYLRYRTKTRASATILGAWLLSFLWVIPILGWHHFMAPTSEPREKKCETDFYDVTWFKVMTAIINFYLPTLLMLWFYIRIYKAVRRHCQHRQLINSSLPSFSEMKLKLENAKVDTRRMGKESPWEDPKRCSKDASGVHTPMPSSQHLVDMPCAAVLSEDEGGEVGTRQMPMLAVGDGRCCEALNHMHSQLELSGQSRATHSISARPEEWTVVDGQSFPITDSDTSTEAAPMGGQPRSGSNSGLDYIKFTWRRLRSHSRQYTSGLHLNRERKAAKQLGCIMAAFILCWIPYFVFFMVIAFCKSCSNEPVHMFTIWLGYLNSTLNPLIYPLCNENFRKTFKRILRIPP

Compound	IC50 [1, 3] [nM]	melting point [°C]	inhibition in vivo at 3 mg/kg [2] [%]	IC50 [1] [nM]
O=C(O)COCCN1CCN(C(c2ccccc2)c2ccc(Cl)cc2)CC1 (stereo not drawn) [CETIRIZINE, reference compound]	226	–	–	–
O=C(O)c1ccccc1OCCN1CCC(c2cn(Cc3ccc(F)cc3)c3ccccc23)CC1 [Example 1, 2-(2-{4-[1-(4-fluoro-benzyl)-1H-indol-3-yl]-piperidin-1-yl}-ethoxy)-benzoic acid]	310	–	–	–
CCCCCn1cc(C2CCN(CCOc3ccccc3C(=O)O)CC2)c2ccccc21 [Example 2, 2-{2-[4-(1-pentyl-1H-indol-3-yl)-piperidin-1-yl]-ethoxy}-benzoic acid]	57	113	> 50	–
CCOCCn1cc(C2CCN(CCCC(=O)O)CC2)c2ccccc21 [Example 3, 4-{4-[1-(2-ethoxy-ethyl)-1H-indol-3-yl]-piperidin-1-yl}-butyric acid]	347	–	–	–
CCOCCn1cc(C2CCN(CCOc3cccc(C(=O)O)c3)CC2)c2ccccc21 [Example 10]	145	–	–	–
CCOCCn1cc(C2CCN(CCCOc3cccc(C(=O)O)c3)CC2)c2ccccc21 [Example 19, 3-(3-{4-[1-(2-ethoxy-ethyl)-1H-indol-3-yl]-piperidin-1-yl}-propoxy)-benzoic acid]	89	–	–	–
CCOCCn1cc(C2CCN(CCc3ccc(C=CC(=O)O)cc3)CC2)c2ccccc21 [Example 32, 3-[4-(2-{4-[1-(2-ethoxy-ethyl)-1H-indol-3-yl]-piperidin-1-yl}-ethyl)-phenyl]-acrylic acid]	59	–	–	–
CCCCCn1cc(C2CCN(CCOCC(=O)O)CC2)c2ccccc21 [Example 38, {2-[4-(1-pentyl-1H-indol-3-yl)-piperidin-1-yl]-ethoxy}-acetic acid]	–	–	–	174
COCCOCCn1cc(C2CCN(Cc3ccc(C(=O)O)o3)CC2)c2ccccc21 [Example 40, 5-(4-{1-[2-(2-methoxy-ethoxy)-ethyl]-1H-indol-3-yl}-piperidin-1-yl-methyl)-furan-2-carboxylic acid]	210	159	–	–
CCCCCn1cc(C2CCN(Cc3ccc(C(=O)O)o3)CC2)c2ccccc21 [Example 41, 5-[4-(1-pentyl-1H-indol-3-yl)-piperidin-1-yl-methyl]-furan-2-carboxylic acid]	111	163 to 165	> 50	–
O=C(O)c1cccc(CN2CCC(c3c[nH]c4ccccc34)CC2)c1 [Example 54, 3-[4-(1H-indol-3-yl)-piperidin-1-ylmethyl]-benzoic acid]	106	–	–	–
CCOCCn1cc(C2CCN(Cc3cccc(C(=O)O)c3)CC2)c2ccccc21 [Example 66, 3-{4-[1-(2-ethoxy-ethyl)-1H-indol-3-yl]-piperidin-1-ylmethyl}-benzoic acid]	248	–	–	–
CC(C)OCCn1cc(C2CCN(CCOc3ccccc3C(=O)O)CC2)c2ccccc21 [Example 108, 2-(2-{4-[1-(2-iso-propoxy-ethyl)-1H-indol-3-yl]-piperidin-1-yl}-ethoxy)-benzoic acid]	275	–	> 50	–
C=CCOCCn1cc(C2CCN(CCOc3ccccc3C(=O)O)CC2)c2ccccc21 [Example 134, 2-(2-{4-[1-(2-allyloxy-ethyl)-1H-indol-3-yl]-piperidin-1-yl}-ethoxy)-benzoic acid]	86	–	–	–
CCOCCn1cc(C2CCN(CCOc3ccc(C(=O)O)cc3)CC2)c2ccccc21 [Example 137, 4-(2-{4-[1-(2-ethoxy-ethyl)-1H-indol-3-yl]piperidin-1-yl}-ethoxy)-benzoic acid]	150	–	–	–
CCOCCn1cc(C2CCN(CCOc3ccccc3C(=O)O)CC2)c2ccccc21 [Example 138, 2-(2-{4-[1-(2-ethoxy-ethyl)-1H-indol-3-yl]piperidin-1-yl}-ethoxy)-benzoic acid]	86	–	> 50	–
CC(C)CCn1cc(C2CCN(CCOc3ccccc3C(=O)O)CC2)c2ccccc21 [Example 139, 2-(2-{4-[1-(3-methyl-butyl)-1H-indol-3-yl]-piperidin-1-yl}-ethoxy)-benzoic acid]	205	150 to 151	–	–
COCCn1cc(C2CCN(CCOc3ccccc3C(=O)O)CC2)c2ccccc21 [Example 140, 2-(2-{4-[1-(2-methoxy-ethyl)-1H-indol-3-yl]-piperidin-1-yl}-ethoxy)-benzoic acid]	83	139 to 140	> 50	–
C=CCn1cc(C2CCN(CCOc3ccccc3C(=O)O)CC2)c2ccccc21 [Example 141, 2-{2-[4-(1-allyl-1H-indol-3-yl)-piperidin-1-yl]-ethoxy}-benzoic acid]	97	123 to 125	> 50	–
CCOCCn1cc(C2CCN(CCOc3ccc(C)cc3C(=O)O)CC2)c2cccc(Br)c21 [Example 143, 2-(2-{4-[7-bromo-1-(2-ethoxy-ethyl)-1H-indol-3-yl]-piperidin-1-yl}-ethoxy)-5-methyl-benzoic acid]	222	–	–	–
O=C(O)c1ccccc1OCCN1CCC(c2cn(CC3CC3)c3cc(F)ccc23)CC1 [Example 150, 2-{2-[4-(1-cyclopropylmethyl-6-fluoro-1H-indol-3-yl)-piperidin-1-yl]-ethoxy}-benzoic acid]	121	97	> 50	–
CCOCCn1cc(C2CCN(CCC(=O)O)CC2)c2ccccc21 [Example 153, 3-{4-[1-(2-ethoxy-ethyl)-1H-indol-3-yl]-piperidin-1-yl}-propionic acid]	245	–	–	–
O=C(O)c1ccccc1OCCN1CCC(c2cn(CC3CC3)c3ccccc23)CC1 [Example 157, 2-{2-[4-(1-cyclopropylmethyl-1H-indol-3-yl)-piperidin-1-yl]-ethoxy}-benzoic acid]	140	145 to 147	> 50	–
O=C(O)c1cccc(CN2CCC(c3cn(CC4CC4)c4ccccc34)CC2)c1 [Example 158, 3-[4-(1-cyclopropylmethyl-1H-indol-3-yl)-piperidin-1-ylmethyl]-benzoic acid]	104	207	> 50	–

The next lines start with results.

IC50 [1, 3] [nM]	melting point [°C]	Compound	inhibition in vivo at 3 mg/kg [2] [%]	IC50 [1] [nM]
88	–	CCCCCn1cc(C2CCN(CCCOc3ccccc3C(=O)O)CC2)c2ccccc21 [Example 15, 2-{3-[4-(1-pentyl-1H-indol-3-yl)-piperidin-1-yl]-propoxy}-benzoic acid]	–	–
127	–	CCCCCn1cc(C2CCN(CCCC(O)c3ccc(C(C)(C)C(=O)O)cc3)CC2)c2ccccc21 (stereo not drawn) [Example 34, 2-(4-{1-hydroxy-4-[4-(1-pentyl-1H-indol-3-yl)-piperidin-1-yl]-butyl}-phenyl)-2-methyl-propionic acid]	–	–
152	–	CCOCCn1cc(C2CCN(CCOc3cccc(F)c3C(=O)O)CC2)c2cccc(Br)c21 [Example 85, 2-(2-{4-[7-bromo-1-(2-ethoxy-ethyl)-1H-indol-3-yl]-piperidin-1-yl}-ethoxy)-6-fluoro-benzoic acid]	–	–
386	144 to 146	CCOCCn1cc(C2CCN(CCOc3ccc(C)cc3C(=O)O)CC2)c2cc(OC)ccc21 [Example 142, 2-(2-{4-[1-(2-ethoxy-ethyl)-5-methoxy-1H-indol-3-yl]-piperidin-1-yl}-ethoxy)-5-methyl-benzoic acid]	> 50	–
116	–	CCOCCn1cc(C2CCN(CCOc3ccc(C)cc3C(=O)O)CC2)c2cc(F)ccc21 [Example 145, 2-(2-{4-[1-(2-ethoxy-ethyl)-5-fluoro-1H-indol-3-yl]-piperidin-1-yl}-ethoxy)-5-methyl-benzoic acid]	–	–
127	–	CCCCn1cc(C2CCN(CCOc3ccccc3C(=O)O)CC2)c2ccccc21 [Example 148, 2-{2-[4-(1-butyl-1H-indol-3-yl)-piperidin-1-yl]-ethoxy}-benzoic acid]	> 50	–
142	–	CCCCCCn1cc(C2CCN(CCOc3ccccc3C(=O)O)CC2)c2ccccc21 [Example 149, 2-{2-[4-(1-hexyl-1H-indol-3-yl)-piperidin-1-yl]-ethoxy}-benzoic acid]	> 50	–
–	230	O=C(O)c1ccccc1OCCN1CCC(c2c[nH]c3ccccc23)CC1 [Example 151, 2-{2-[4-(1H-indol-3-yl)-piperidin-1-yl]-ethoxy}-benzoic acid]	–	–
–	109 to 112	CCOCCn1cc(C2CCN(CCOc3ccc(C)cc3C(=O)O)CC2)c2ccccc21 [Example 154, 2-(2-{4-[1-(2-ethoxy-ethyl)-1H-indol-3-yl]-piperidin-1-yl}-ethoxy)-5-methyl-benzoic acid]	–	–
68	83 to 85	O=C(O)Cc1ccc(OCCCN2CCC(c3cn(CC4CC4)c4ccccc34)CC2)cc1 [Example 159, (4-{3-[4-(1-cyclopropylmethyl-1H-indol-3-yl)-piperidin-1-yl]-propoxy}-phenyl)-acetic acid]	–	–
